Where two headings read alike, the source gives them in different places. One block for each compound: values may come before it. Non-standard residues stand in square brackets, D forms with d. Residues, ends and D or L forms follow the SMILES beside them. *: point of attachment. Sta = CC(C)C[C@H](N)[C@@H](O)CC(=O)O; AMC = Cc1cc(=O)oc2cc(N*)ccc12; Isovaleryl = CC(C)CC(=O)*; Cbz = O=C(OCc1ccccc1)*; CHN2 = [N-]=[N+]=C*
Columns and labels:
[1] = biological target: T1, recombinant human cathepsin O2 (Homo sapiens, UniProt P43235); experiment: Hydrolysis of synthetic MCA substrates (kinetic parameters); type: biochemical
T1 construct: the mature protein spans from position 115 to 329 (215 amino acids); made in house; host or cells: Sf9 insect cells (baculovirus, pVL1392)
T1 sequence (P43235 115-329): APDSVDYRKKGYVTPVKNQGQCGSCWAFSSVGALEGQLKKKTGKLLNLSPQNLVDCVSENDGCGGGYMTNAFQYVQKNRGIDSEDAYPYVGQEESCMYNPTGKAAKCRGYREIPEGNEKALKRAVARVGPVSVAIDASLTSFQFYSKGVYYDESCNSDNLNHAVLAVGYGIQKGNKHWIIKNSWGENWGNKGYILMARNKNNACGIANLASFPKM
Method: (§1) Human cathepsin O2 was assayed with a fluorogenic substrate Z-FR-MCA (MCA, methyl coumarylamide) in 100 mM sodium acetate buffer, containing 2.5 mM dithioerythreitol and 2.5 mM EDTA. Initial rates of hydrolysis of the MCA-substrate are monitored in 1-cm cuvettes at 25° C. at an excitation wavelength at 380 nm and an emission wavelength at 450 nm. The concentration of Z-FR-MCA is 5 μM under standard conditions.
The kinetic constants Vmax and Km were obtained by non-linear regression analysis using the program Enzfitter (Leatherbarrow, Enzfitter, Elsevier Biosoft, Cambridge, United Kingdom (1987).
The substrate specificity towards synthetic substrates was determined using the above described substrate assay.
For the calculation of the kinetic parameters kcat and Km the initial rates were obtained typically at 9-11 different substrate concentrations, and the results are fitted to equation (1). The enzyme concentration is determined by active site titration with E-64 (Kinder et al., Biochem. J. 201:367-372 (1982)). [formula]

[2] = biological target: T1, recombinant human cathepsin O2; experiment: Inhibitor profile, fluorimetric enzyme assay with Z-FR-MCA; type: biochemical; conditions: for inhibition at 0.05 µM: [inhibitor] 0.05 μM
Method: as §1
The inhibition of cathepsin O2 was assayed at a constant substrate (5 μM Z-FR-MCA) and enzyme concentration (1 nM) in the presence of different inhibitor concentrations in the substrate assay buffer. Cathepsin O2 was preincubated with the inhibitors for 10 min and the reaction was started with substrate. The residual activity was monitored and percent inhibition was calculated from the uninhibited rate.
The efficacy of protease class specific inhibitors to inhibit cathepsin O2 was determined by adding the inhibitor to the purified enzyme in a fluorimetric enzyme assay (described above).

[3] = system: denatured soluble calf skin collagen; experiment: Gelatinase activity, SDS-PAGE; type: biochemical
Method: FIGS. 9A and 9B depict SDS PAGE of type I collagen (soluble calf skin collagen) after digestion with recombinant human cathepsin O2 and L and bovine trypsin. FIG. 9A: Collagenase activity: Digestion of soluble calf skin collagen at 28° C. and at pH 4.0, 5.0, 5.5, 6.0, 6.5, 7.0 by human cathepsins O2, S and L (each 50 nM) for 12 hours. The reaction was stopped by addition of 10 μM E-64. Untreated soluble collagen was used as standard (S). FIG. 9B: Gelatinase activity: Digestion of denatured soluble calf skin collagen (10 min heated at 70° C.) at 28° C. and at pH 4.0, 5.0, 5.5, 6.0, 6.5, 7.0 by human cathepsin O2 (0.1 nM), cathepsin L (0.2 nM) and human cathepsin S (1 nM). Molecular mass standards are indicated in the left lane.
Soluble calf skin Type I collagen was diluted to 0.4 mg/ml into 100 mM-sodium acetate buffer, pH 4.5, 5.0, 5.5, in 100 mM-potassium phosphate buffer, pH 6.0, 6.5 and 100 mM-Tris/HCl, pH 7.0 containing 2 mM-dithiotreitol/2 mM-EDTA. Human cathepsins O2, S and L and bovine trypsin (Sigma) were incubated at concentrations of 100 nM enzyme concentration for 10 hours at 28° C. To measure the gelatinase activity of cathepsins O2 and S, Type I collagen was heated for 10 min at 70° C. prior to incubation with the proteases. In the presence of 1 nM proteases the reaction mix was incubated for 30 min at 28° C. […]

[4] = pH stability at 37° C.; type: physicochemical
Method: The residual activity was measured in time intervals using the above described fluorimetric substrate assay. The pH stability of cathepsins O2, S and L was studied at three different pH values. Recombinant human cathepsins O2, S and L were incubated at 37° C. in 100 mM sodium acetate buffer, pH 5.5, in 100 mM potassium phosphate buffer, pH 6.5 and in 100 mM Tris/HCl, pH 7.5 containing 5 mM dithiothreitol and 2.5 mM EDTA. Incubating for 0.5, 1, 2 and 4 hours, the activity remaining was determined using 5 μM Z-FR-MCA for cathepsin O2 (100 mM potassium phosphate buffer, pH 6.5) and cathepsin L (100 mM sodium acetate buffer, pH 5.5) and 5 μM Z-VVR-MCA for cathepsin S (100 mM potassium phosphate buffer, pH 6.5).

[5] = system: [^3H] elastin; experiment: Elastin degradation assay; type: biochemical
Method: Elastin (2 mg) was incubated in I ml buffer containing 2.5 mM dithiothreitol, 2.5 mM EDTA and 0.05% Triton X-100 for the cathepsin O2, S and L assays. Aliquots were withdrawn after 10, 20, 30, 50, 90, 120 and 180 min, centrifuged for 1 min at 14,000×g and counted in a 24-well plate containing scintillation fluid with Liquid Scintillation counter (1450 Microbeta Plus, Wallac/Pharmacia). Concentrations of human cathepsins O2, S and L and bovine elastase in the elastin degradation assay were 65 nM, 28 nM, 80 nM and 80 nM, respectively. To determine the pH effect on protease activity the digests were carried out at pH 4.5 and 5.5 (100 mM sodium acetate, 2.5 mM each dithiothreitol and EDTA, 0.05% Triton X-100), and at pH 7.0 (100 mM Tris/HCl, 2.5 mM each of dithiothreitol and EDTA, 0.05% Triton X-100). Pancreatic bovine elastase (Boehringer, Mannheim, Ind.) was assayed under the same conditions except that neither dithiothreitol nor EDTA was added to the incubation mixture.

[6] = from literature; cited from earlier work
[7] = pH activity profile; type: biochemical; conditions: calculated from (pK1 + pK2)/2
Method: Initial rates of substrate hydrolysis were monitored as described above. The pH activity profile of human cathepsin O2 was obtained at 1 μM substrate (Z-FR-MCA) concentration ([S]<<Km where the initial rate vo is directly proportional to the kcat/Km value). The following buffers were used for the pH activity profile: 100 mM sodium citrate (pH 2.8-5.6) and 100 mM sodium phosphate (pH 5.8-8.0). All buffers contained 1 mM EDTA and 0.4 M NaCl to minimize the variation in ionic strength. A three protonation model (Khouri et al., Biochem. 30:8929-8936 (1991)) was used for least square regression analysis of the pH activity data. The data were fitted to the following equation.
(kcat/Km)obs=(kcat/Km)/([H^+]/K1+1+K2/[H^+])

Compound: Cbz-Val-Val-Arg-{AMC}
Km [1]: 18.5 ± 1.5 µM
kcat [1]: 0.01 ± 0.004 s⁻¹

Compound: CC(C)C[C@H](NC(=O)[C@@H](NC(=O)N[C@@H](Cc1ccccc1)C(=O)O)[C@@H]1CCN=C(N)N1)C(=O)N[C@H](C=O)Cc1ccccc1 [chymostatin]
inhibition at 0.05 µM [2]: 64%

Compound: [N-]=[N+]=CC(=O)[C@H](Cc1ccccc1)NC(=O)[C@H](Cc1ccccc1)NC(=O)OCc1ccccc1 [Z-FF-CHN2] (Cbz-Phe-Phe-CHN2)
% inhibition ([2]; [inhibitor] 0.1 μM): 90%

Compound: Cbz-Val-Arg-{AMC}
Km [1]: 13.1 ± 5.6 µM
kcat [1]: 1.06 ± 0.16 s⁻¹

Compound: C[C@H](NC(=O)[C@H](Cc1ccccc1)NC(=O)OCc1ccccc1)C(=O)C=[N+]=[N-] [Z-FA-CHN2]
% inhibition ([2]; [inhibitor] 0.1 μM): 100%

Compound: cathepsin L: recombinant human cathepsin L provided by Dr. Mort [reference compound]
pH range of gelatinase activity [3]: 4.5-5.5
Residual activity (%) ([4]; pH 5.5, 37° C., 0.5 hr): 87%
Residual activity (%) ([4]; pH 5.5, 37° C., 1 hr): 78%
Residual activity (%) ([4]; pH 5.5, 37° C., 2 hr): 71%
Residual activity (%) ([4]; pH 5.5, 37° C., 4 hr): 51%
Residual activity (%) ([4]; pH 6.5, 37° C., 0.5 hr): 12%
Residual activity (%) ([4]; pH 6.5, 37° C., 2 hr): 0%
Residual activity (%) ([4]; pH 6.5, 37° C., 4 hr): 0%
Residual activity (%) ([4]; pH 7.5, 37° C., 0.5 hr): 0%
Residual activity (%) ([4]; pH 7.5, 37° C., 1 hr): 0%
Residual activity (%) ([4]; pH 7.5, 37° C., 2 hr): 0%
Residual activity (%) ([4]; pH 7.5, 37° C., 4 hr): 0%
elastinolytic activity ([5]; pH 4.5): 18 mg/min/μmol enzyme
elastinolytic activity ([5]; pH 5.5): 32 mg/min/μmol enzyme
elastinolytic activity ([5]; pH 7.0): 0 mg/min/μmol enzyme
pK1 of pH activity profile [6]: 4.22 ± 0.28
pK1′ of pH activity profile [6]: 3.33 ± 0.14
pK2 of pH activity profile [6]: 6.95 ± 0.09
pH optimum [7]: 5.6

Compound: CC(=O)N[C@@H](CC(C)C)C(=O)N[C@@H](CC(C)C)C(=O)N[C@H](C=O)CCCNC(=N)N [leupeptin]
inhibition at 0.05 µM [2]: 85%

Compound: O=c1oc(Cl)c(Cl)c2ccccc12 [DCI]
% inhibition ([2]; [inhibitor] 0.1 mM): 0%

Compound: O=S(=O)(F)Cc1ccccc1 [PMSF]
% inhibition ([2]; [inhibitor] 1 mM): 0%

Compound: O=C(O)CI [iodo acetate]
% inhibition ([2]; [inhibitor] 50 μM): 60%

Compound: Cl.NCCc1ccc(S(=O)(=O)F)cc1 [Befablock]
% inhibition ([2]; [inhibitor] 0.2 mM): 0%

The remaining lines, values ahead:

inhibition at 0.1 µM ([2]; [inhibitor] 0.1 μM): 100%
Compound: CCCC[C@@H](C=O)NC(=O)[C@H](CC(C)C)NC(=O)OCc1ccccc1 [calpeptin]

Km [1]: 7.5 ± 3.4 µM
kcat [1]: 0.90 ± 0.20 s⁻¹
Compound: Cc1cc(=O)oc2cc(NC(=O)C(CCCN=C(N)N)NC(=O)C(Cc3ccccc3)NC(=O)OCc3ccccc3)ccc12 (stereo not drawn) [Z-FR-MCA] (Cbz-Phe-Arg-{AMC}; configuration not given here)

Km [1]: 23 ± 4 µM
kcat [1]: 0.0005 ± 0.0002 s⁻¹
substrate quality [1]: very poor substrate
Compound: Cc1cc(=O)oc2cc(NC(=O)[C@H](CCCN=C(N)N)NC(=O)[C@H](CCCN=C(N)N)NC(=O)OCc3ccccc3)ccc12 [Z-RR-MCA] (Cbz-Arg-Arg-{AMC})

inhibition at 0.1 µM ([2]; [inhibitor] 0.1 μM): 0%
Compound: CC(C)CC(=O)N[C@H](C(=O)N[C@H](C(=O)N[C@@H](CC(C)C)[C@@H](O)CC(=O)N[C@@H](C)C(=O)N[C@@H](CC(C)C)[C@@H](O)CC(=O)O)C(C)C)C(C)C [pepstatin] (Isovaleryl-VV[Sta]A[Sta]-OH)

% inhibition ([2]; [inhibitor] 4 mM): 0%
effect on the activity of cathepsin O2 ([2]; concentration of 4 mM): No effect
inhibition of cathepsin O2 ([2]; higher concentrations (>5 mM)): partial non-specific inhibition
Compound: O=C(O)CN(CCN(CC(=O)O)CC(=O)O)CC(=O)O [EDTA]

% inhibition ([2]; [inhibitor] 0.1 μM): 100%
inhibition of enzyme activity ([2]; concentrations above 0.1 μM): completely inhibit
Compound: CC(C)C[C@H](NC(=O)[C@H]1O[C@@H]1C(=O)O)C(=O)NCCCCN=C(N)N [E-64]

Km [1]: 0.4 ± 0.1 µM
kcat [1]: 0.02 ± 0.008 s⁻¹
Km ([1]; text value): 0.4 µM
Compound: Z-LLR-MCA

Km [1]: 3.8 ± 0.8 µM
kcat [1]: 0.98 ± 0.39 s⁻¹
Compound: Cc1cc(=O)oc2cc(NC(=O)[C@H](CCCN=C(N)N)NC(=O)[C@H](CC(C)C)NC(=O)OCc3ccccc3)ccc12 [Z-LR-MCA]

Reference: patent US6544767B1, “Cathespin O2 protease” (Axys Pharmaceuticals, Inc., priority 1994, dated 2003)
